Test results reported in the NIST ThermoML archive (doi:10.1021/je034173q).

Key:
[1] = molar heat capacity at constant pressure; settings: 101.33 kPa, Liquid, Small sample (50 mg) DSC
[2] = Liquid, Ebulliometric method (Recirculating still)

CCC1COC(=O)O1 (centres undefined) [1,2-butylene carbonate]
Settings	molar heat capacity at constant pressure [J/K/mol]	vapor or sublimation pressure [kPa]
[1], 283.15 K	192.75	–
[1], 293.15 K	195.07	–
[1], 303.15 K	197.4	–
[1], 313.15 K	199.72	–
[1], 323.15 K	202.04	–
[1], 333.15 K	205.52	–
[1], 343.15 K	207.85	–
[1], 353.15 K	210.17	–
[1], 363.15 K	212.49	–
[1], 373.15 K	214.81	–
[2], 397.25 K	–	1.9
[2], 402.93 K	–	2.44
[2], 409.65 K	–	3.23
[2], 417.69 K	–	4.45
[2], 424.67 K	–	5.8
[2], 432.03 K	–	7.57
[2], 438.31 K	–	9.43
[2], 445.57 K	–	12.03
[2], 453.2 K	–	15.39
[2], 460.53 K	–	19.28
[2], 467.68 K	–	23.89
[2], 474.59 K	–	29.14
[2], 481.93 K	–	35.77
[2], 488.3 K	–	42.38
[2], 495.04 K	–	50.52
[2], 501.76 K	–	59.91
[2], 508.33 K	–	70.54
[2], 515.54 K	–	83.68
[2], 522.74 K	–	99.08

CC1COC(=O)O1 (centres undefined) [4-methyl-1,3-dioxolan-2-one]
Settings	molar heat capacity at constant pressure [J/K/mol]	vapor or sublimation pressure [kPa]
[1], 303.15 K	170.49	–
[1], 313.15 K	172.53	–
[1], 323.15 K	174.57	–
[1], 333.15 K	176.61	–
[1], 343.15 K	178.66	–
[1], 353.15 K	180.7	–
[1], 363.15 K	183.76	–
[1], 373.15 K	185.8	–
[1], 383.15 K	188.86	–
[1], 393.15 K	190.91	–
[2], 459.85 K	–	24.21
[2], 465.35 K	–	28.46
[2], 468.45 K	–	31.24
[2], 471.75 K	–	34.04
[2], 475.85 K	–	38.09
[2], 478.35 K	–	40.81
[2], 482.25 K	–	45.44
[2], 485.05 K	–	49.16
[2], 491.25 K	–	57.38
[2], 494.25 K	–	61.83
[2], 496.95 K	–	66.33
[2], 499.45 K	–	70.45
[2], 501.25 K	–	73.46
[2], 504.05 K	–	78.67
[2], 506.65 K	–	83.64
[2], 508.15 K	–	86.64
[2], 509.75 K	–	89.87
[2], 511.15 K	–	92.66
[2], 513.25 K	–	97.17

O=C1OCC(CO)O1 (centres undefined) [glycerine carbonate]
Settings	molar heat capacity at constant pressure [J/K/mol]	vapor or sublimation pressure [kPa]
[1], 283.15 K	211.38	–
[1], 293.15 K	213.74	–
[1], 303.15 K	214.92	–
[1], 313.15 K	216.1	–
[1], 323.15 K	217.28	–
[1], 333.15 K	218.46	–
[1], 343.15 K	220.82	–
[1], 353.15 K	223.19	–
[1], 363.15 K	225.55	–
[1], 373.15 K	226.73	–
[2], 429.91 K	–	0.26
[2], 432.47 K	–	0.3
[2], 434.39 K	–	0.33
[2], 435.94 K	–	0.36
[2], 438.9 K	–	0.41
[2], 447.48 K	–	0.62
[2], 449.41 K	–	0.68
[2], 452.48 K	–	0.78
[2], 455.61 K	–	0.9

O=C1OCCO1 [ethylene carbonate]
Settings	molar heat capacity at constant pressure [J/K/mol]	vapor or sublimation pressure [kPa]
[1], 383.15 K	155.87	–
[1], 388.15 K	156.75	–
[1], 393.15 K	157.63	–
[1], 398.15 K	158.51	–
[2], 451.58 K	–	15.19
[2], 456.04 K	–	17.52
[2], 460.15 K	–	19.94
[2], 466.22 K	–	24.23
[2], 487.1 K	–	44.69
[2], 493.67 K	–	53.59
[2], 500.01 K	–	63.34
[2], 505.5 K	–	73.45
